Data as given in patent EP0782989A1, “INDOLE DERIVATIVES” (KYOWA HAKKO KOGYO CO., LTD., priority 1995, dated 1997).
Structures can show the parent of a compound that is named as a salt.

Legend:
ovariectomized rats [1] = test: Inhibitory effect on the increase of urinary hydroxyproline excretion by ovariectomy; type: in vivo, SD strain rats; conditions: Rattus norvegicus, po, 336 h; 10 mg/kg orally once a day for two weeks after ovariectomy; hydroxyproline/creatinine molar ratio in 24 hours urine; read-out: Inhibition rate of increase of the amount of urinary hydroxyproline excretion
Experimental: The inhibitory effect of the compounds of the present application on bone resorption was also determined by their inhibitory effect on the excretion of urinary hydroxyproline which is elevated by ovariectomy of the animals tested, according to the report of Kalu et al. [Bone and Mineral., 14, 175 (1991)].
Test Example 2: Inhibitory effect on the increase of urinary hydroxyproline excretion by ovariectomy
12-weeks-old female SD strain rats (Japan Clea Co., Ltd.) were acclimated for 1 week during which they were given tap water and a standard diet (F2; Funabashi Farmas) ad libitum. The experiment was carried out using the rats weighing 270-310 g. After the animals were subjected to sham operation or bilateral ovariectomy, they were allowed free access to water passed through ion exchange resin instead of tap water, and were housed in individual cages. The test compound (10 mg/kg) was suspended in 0.3% Tween or 0.5% methylcellulose, and the obtained suspension was orally administered to the ovariectomized rats once a day for two weeks starting from the day following ovariectomy (0.5 ml/100 g body weight). 0.3% Tween or 0.5% methylcellulose was similarly administered to sham-operated rats and ovariectomized control rats. After the final administration, the rats were placed in individual metabolic cages and fasted during 24 hours, and urine was collected. The volume of the collected urine was measured and the urine was centrifuged at 3,000 rpm for 15 min at 4°C. The concentration of hydroxyproline in the supernatant was measured by the method of Ikeda et al. [Ann. […] P. H., 36, 277-282 (1985)] and the concentration of creatinine in the supernatant was measured with creatinine test WAKO (Wako Pure Chem.) The amount of urinary hydroxyproline excretion was expressed by the molar ratio of the amount of hydroxyproline to the amount of creatinine. The rate of inhibition on increase of the amount of urinary hydroxyproline excretion in ovariectomized rats treated with the test compound compared to that of the control group was calculated using the following equation. Inhibition rate (%) = [(P1 - P2)/(P1 - P3)] x 100 [formula] • P1 : The amount of urinary hydroxyproline excretion in ovariectomized rats treated with 0.3% Tween (µmol/mmol). • P2 : The amount of urinary hydroxyproline excretion in ovariectomized rats treated with the test compound (µmol/mmol). • P3 : The amount of urinary hydroxyproline in sham-operated rats treated with 0.3% Tween (µmol/mmol).

PTH enhanced bone = test: Inhibitory effect on bone absorption (calcium liberation from PTH enhanced cultured calvaria); type: cell-based, newborn dd mouse; conditions: Mus musculus; calvaria culture with PTH 1 x 10^-8M, 96 hours, total calcium in the culture; test compound 3 x 10^-6M, 1 x 10^-5M, 3 x 10^-5M
Experimental: Test Example 1: Inhibitory effect on bone absorption The calvaria was excised from a newborn dd mouse (5 to 6 days old) under sterile conditions. The calvaria was washed with a modified Dulbecco phosphate buffer physiological saline solution containing neither calcium nor magnesium (a product of Gibco Oriental), and divided into two parts along the center suture. A half of the calvaria was cultivated in a modified Dulbecco Eagle medium (1.5 ml) (a product of Gibco Oriental) containing 2.5% fetal calf serum and 15% equine serum which had been inactivated by heating at 56°C for 20 minutes. The test compound was dissolved in dimethyl sulfoxide and 10 μl of the resulting solution was added to the culture medium to give the final concentrations of 3 x 10^-6M, 1 x 10^-5M, and 3 x 10^-5M. PTH (parathyroid hormone) was dissolved in a 0.15 M saline solution (pH 3) and 3 μl of the resulting solution was added to the culture medium to give the final concentration of 1 x 10^-8M. The culturing was carried out under the condition of 95% air and 5% carbon dioxide and at a temperature of 37°C for 96 hours. At 48 hours after the start of the culturing, the culture medium was renewed and the test compound and PTH treated as defined above were added thereto. For examining the effect of the test compound on calcium liberation (bone absorption) from the PTH enhanced bone, a control group, a group using PTH (1 x 10^-8M), and a group using both the test compound (3 […]) and PTH were prepared. The amount of the bone absorption was determined by measuring the amount of calcium accumulated in the culture as collected after 96 hours of culturing. The total calcium concentration in the culture was measured with Calcium C Test Wako. The inhibition rate was calculated using the following equation and the result was shown in terms of 50% inhibitory concentration (IC50). Inhibition of bone absorption from PTH enhanced bone Inhibition rate (%) = [(CP - CD )/(CP - C0 )] x 100 [formula] • C0 : The total calcium concentration in the culture containing neither the test compound nor PTH. • CP : The total calcium concentration in the culture treated with only PTH. • CD : The total calcium concentration in the culture treated with both the test compound and PTH.

ovariectomized rats [2] = test: Inhibitory effect on decrease of bone density by ovariectomy (tibia, DEXA); type: in vivo, SD strain rats; conditions: 10 mg/kg orally once a day for 6 weeks
Experimental: Test Example 3: Inhibitory effect on decrease of bone density by ovariectomy
The experiment was carried out using 13-weeks-old female SD strain rats (Japan Crea Co. Ltd.) The animals were subjected to sham operation or bilateral ovariectomy under Nembutal anesthesia. The test compound (10 mg/kg) was dissolved or suspended in 0.5% methylcellulose (Shin-Etsu Chemical Co., Ltd.) and administered orally once a day from the first day after the operation for 6 weeks. For the sham-operated group and the ovariectomized control group, 0.5% methylcellulose (Shin-Etsu Chemical Co., Ltd.) was administered orally. The rat was slaughtered by femoral artery bleeding, the right hindlimb was ablated, and then the bone mineral content (BMC) and bone density (BD) of the tibia was measured according to a DEXA (DXA) method [Japan Clinic, 52 (9), 2329-2334 (1994)] using bone mineral measuring apparatus DCS-600 (Aloka Co., Ltd.). Tibial BMC and BD in the sham-operated, ovariectomized control, and test compound-treated ovariectomized group are shown in Table 4.

Structure (SMILES): CN(C)CCn1c(C(=O)NCCCN2CCOCC2)c(C(c2ccccc2)c2ccccc2)c2ccccc21 [Compound 20, N-(3-Morpholinopropyl)-1-(2-dimethylaminoethyl)-3-(diphenylmethyl)indole-2-carboxamide]
- inhibition in vivo at 10 mg/kg (ovariectomized rats [1]): 100%
- IC50 (PTH enhanced bone): 3.7 µM

Structure (SMILES): CCOC(=O)c1c(C(c2ccccc2)c2ccccc2)c2ccccc2n1CCCN(C)C [Compound 64, Ethyl 1-(3-dimethylaminopropyl)-3-(diphenylmethyl)indole-2-carboxylate]
- inhibition in vivo at 10 mg/kg (ovariectomized rats [1]): 77%
- IC50 (PTH enhanced bone): 16.7 µM

Structure (SMILES): CN(C)CCn1c(C(=O)O)c(C(c2ccccc2)c2ccccc2)c2ccccc21 [Compound 6, 1-(2-Dimethylaminoethyl)-3-(diphenylmethyl)indole-2-carboxylic acid]
- inhibition in vivo at 10 mg/kg (ovariectomized rats [1]): 100%

Structure (SMILES): O=C(c1c(C(c2ccccc2)c2ccccc2)c2ccccc2n1CCN1CCCC1)N1CCN(c2ccccc2Cl)CC1 [Compound 4, 2-[4-(2-Chlorophenyl)piperazinylcarbonyl]-3-(diphenylmethyl)-1-(2-pyrrolidinylethyl)indole]
- inhibition in vivo at 10 mg/kg (ovariectomized rats [1]): 43%

Structure (SMILES): CN(C)CCn1c(C(=O)N2CCCCC2)c(C(c2ccccc2)c2ccccc2)c2ccccc21 [Compound 10, 1-(2-Dimethylaminoethyl)-3-(diphenylmethyl)-2-(piperidinocarbonyl)indole]
- IC50 (PTH enhanced bone): 9.1 µM

Structure (SMILES): CN(C)CCn1c(C(=O)NCCCN2CCCC2=O)c(C(c2ccccc2)c2ccccc2)c2ccccc21 [Compound 21, N-[3-(2-Oxopyrrolidinyl)propyl]-1-(2-dimethylaminoethyl)-3-(diphenylmethyl)indole-2-carboxamide]
- BD (mg/cm^2) (ovariectomized rats [2]; tibia bone density): 126.95 ± 1.78 mg/cm^2
- BMC (ovariectomized rats [2]; tibia bone mineral content): 268.81 ± 7.38 mg
- inhibition in vivo at 10 mg/kg (ovariectomized rats [1]): 100%
- IC50 (PTH enhanced bone): 14.3 µM

Structure (SMILES): CC(C)NC(=O)c1c(C(c2ccccc2)c2ccc(O)cc2)c2ccccc2n1CCN(C)C (centres unmarked) [Compound 119, N-Isopropyl-1-(2-dimethylaminoethyl)-3-(4-hydroxybenzhydryl)indole-2-carboxamide hydrochloride]
- IC50 (PTH enhanced bone): 10.8 µM

Structure (SMILES): CN(C)CCn1c(C(=O)N2CCN(Cc3ccccc3)CC2)c(C(c2ccccc2)c2ccccc2)c2ccccc21 [Compound 15, 2-(4-Benzylpiperazinylcarbonyl)-1-(2-dimethylaminoethyl)-3-(diphenylmethyl)indole]
- inhibition in vivo at 10 mg/kg (ovariectomized rats [1]): 100%
- IC50 (PTH enhanced bone): 14.3 µM

Structure (SMILES): CCCc1ccc(NC(=O)c2c(C(c3ccccc3)c3ccc(O)cc3)c3ccccc3n2CCN(C)C)cc1 (centres unmarked) [Compound 120, N-(4-Propylphenyl)-1-(2-dimethylaminoethyl)-3-(4-hydroxybenzhydryl)indole-2-carboxamide hydrochloride]
- IC50 (PTH enhanced bone): 10.5 µM

Structure (SMILES): CN(C)CCn1c(C(=O)NCCCN2CCOCC2)c(C(c2ccccc2)c2ccc(O)cc2)c2ccccc21 (centres unmarked) [Compound 121, N-(3-Morpholinopropyl)-1-(2-dimethylaminoethyl)-3-(4-hydroxybenzhydryl)indole-2-carboxamide 2 hydrochloride]
- inhibition in vivo at 10 mg/kg (ovariectomized rats [1]): 59%

Structure (SMILES): CCOC(=O)c1c(C(c2ccc(C)cc2)c2ccc(C)cc2)c2ccccc2n1CCN1CCCCC1 [Compound 98, Ethyl 3-[bis(4-methylphenyl)methyl]-1-(2-piperidinoethyl)indole-2-carboxylate]
- inhibition in vivo at 10 mg/kg (ovariectomized rats [1]): 47%

Structure (SMILES): CN(C)CCn1c(C(=O)N2CCN(c3ccccc3)CC2)c(C(c2ccccc2)c2ccccc2)c2ccccc21 [Compound 14, 1-(2-Dimethylaminoethyl)-3-(diphenylmethyl)-2-(4-phenylpiperazinylcarbonyl)indole]
- IC50 (PTH enhanced bone): 10.9 µM

Structure (SMILES): CCCc1ccc(NC(=O)c2c(C(c3ccc(Cl)cc3)c3ccc(Cl)cc3)c3ccccc3n2CCN(C)C)cc1 [Compound 97, N-(4-propylphenyl)-3-[bis(4-chlorophenyl)methyl]-1-(2-dimethylaminoethyl)indole-2-carboxamide hydrochloride]
- inhibition in vivo at 10 mg/kg (ovariectomized rats [1]): 40%
- IC50 (PTH enhanced bone): 14.3 µM

Structure (SMILES): CN(C)CCn1c(C(=O)NC2CCCCCC2)c(C(c2ccccc2)c2ccccc2)c2ccccc21 [Compound 11, N-Cycloheptyl-1-(2-dimethylaminoethyl)-3-(diphenylmethyl)indole-2-carboxamide]
- inhibition in vivo at 10 mg/kg (ovariectomized rats [1]): 100%
- IC50 (PTH enhanced bone): 17.5 µM

Structure (SMILES): CN(C)CCn1c(C(=O)N2CCOCC2)c(C(c2ccccc2)c2ccccc2)c2ccccc21 [Compound 13, 1-(2-Dimethylaminoethyl)-3-(diphenylmethyl)-2-(morpholinocarbonyl)indole]
- IC50 (PTH enhanced bone): 11.2 µM

Structure (SMILES): CN(C)CCn1c(C(=O)NC2CC2)c(C(c2ccccc2)c2ccccc2)c2ccccc21 [Compound 51, N-Cyclopropyl-1-(2-dimethylaminoethyl)-3-(diphenylmethyl)indole-2-carboxamide hydrochloride]
- inhibition in vivo at 10 mg/kg (ovariectomized rats [1]): 70%

Structure (SMILES): CC(C)NC(=O)c1c(C(c2ccccc2)c2ccccc2)c2ccccc2n1CCN(C)C [Compound 8, N-Isopropyl-1-(2-dimethylaminoethyl)-3-(diphenylmethyl)indole-2-carboxamide]
- inhibition in vivo at 10 mg/kg (ovariectomized rats [1]): 100%
- IC50 (PTH enhanced bone): 14.3 µM

Structure (SMILES): CN(C)CCn1c(C(=O)NCCCn2ccnc2)c(C(c2ccccc2)c2ccccc2)c2ccccc21 [Compound 22, N-[3-(1-Imidazolyl)propyl]-1-(2-dimethylaminoethyl)-3-(diphenylmethyl)indole-2-carboxamide]
- inhibition in vivo at 10 mg/kg (ovariectomized rats [1]): 87%
- IC50 (PTH enhanced bone): 13.7 µM

Structure (SMILES): CNC(=O)c1c(C(c2ccccc2)c2ccccc2)c2ccccc2n1CCN(C)C [Compound 56, N-Methyl-1-(2-dimethylaminoethyl)-3-(diphenylmethyl)indole-2-carboxamide hydrochloride]
- inhibition in vivo at 10 mg/kg (ovariectomized rats [1]): 57%
- IC50 (PTH enhanced bone): 13 µM

Structure (SMILES): O=C(NCCN1CCCCC1)c1c(C(c2ccccc2)c2ccccc2)c2ccccc2n1CCN1CCCC1 [Compound 62, N-(2-Piperidinoethyl)-3-(diphenylmethyl)-1-(2-pyrrolidinylethyl)indole-2-carboxamide 2 hydrochloride]
- inhibition in vivo at 10 mg/kg (ovariectomized rats [1]): 53%
- IC50 (PTH enhanced bone): 18.1 µM
